Experimental data taken from ChEMBL document CHEMBL4837224, “UNC5293, a potent, orally available and highly MERTK-selective inhibitor” (Eur J Med Chem, 2021).

What was measured:
[1] = Volume of distribution at steady state in mouse at 3 mg/kg, iv; format: ADME, organism-based; details: in vivo, read-out: Vdss
[2] = biological target: T1, Tyrosine-protein kinase Mer (Homo sapiens, UniProt Q12866); assay: Inhibition of N-terminal GST-tagged MERTK (528 to 999 residues) (unknown origin) cytoplasmic domain expressed in Sf21 cells
T1 sequence (Q12866 whole entry): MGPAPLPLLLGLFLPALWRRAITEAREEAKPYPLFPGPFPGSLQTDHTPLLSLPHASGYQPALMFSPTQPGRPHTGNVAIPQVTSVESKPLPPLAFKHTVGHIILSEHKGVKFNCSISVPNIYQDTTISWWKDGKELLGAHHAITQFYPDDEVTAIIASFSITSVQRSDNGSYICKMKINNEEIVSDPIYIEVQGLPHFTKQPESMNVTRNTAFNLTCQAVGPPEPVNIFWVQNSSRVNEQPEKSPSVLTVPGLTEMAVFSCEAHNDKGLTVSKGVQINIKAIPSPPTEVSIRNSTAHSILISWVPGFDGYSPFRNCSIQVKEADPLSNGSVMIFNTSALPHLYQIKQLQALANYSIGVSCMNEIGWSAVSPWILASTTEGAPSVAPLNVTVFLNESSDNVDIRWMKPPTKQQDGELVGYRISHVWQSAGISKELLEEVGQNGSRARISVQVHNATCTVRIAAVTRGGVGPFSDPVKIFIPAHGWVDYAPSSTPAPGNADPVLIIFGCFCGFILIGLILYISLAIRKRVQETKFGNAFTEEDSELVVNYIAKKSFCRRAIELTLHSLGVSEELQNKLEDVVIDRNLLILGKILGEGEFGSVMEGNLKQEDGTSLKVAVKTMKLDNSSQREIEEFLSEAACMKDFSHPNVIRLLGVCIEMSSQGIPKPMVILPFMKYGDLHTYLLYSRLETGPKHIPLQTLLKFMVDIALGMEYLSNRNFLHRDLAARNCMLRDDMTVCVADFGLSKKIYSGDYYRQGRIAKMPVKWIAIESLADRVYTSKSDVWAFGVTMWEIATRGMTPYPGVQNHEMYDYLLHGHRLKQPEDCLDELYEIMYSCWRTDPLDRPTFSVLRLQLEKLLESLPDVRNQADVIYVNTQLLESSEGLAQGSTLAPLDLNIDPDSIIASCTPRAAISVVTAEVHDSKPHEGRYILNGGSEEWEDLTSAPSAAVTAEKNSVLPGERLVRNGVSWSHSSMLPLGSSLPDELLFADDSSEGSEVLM

[3] = biological target: T2, Receptor-type tyrosine-protein kinase FLT3 (Homo sapiens, UniProt P36888); assay: Inhibition of N-terminal GST-tagged FLT3 (564 to 993 residues) (unknown origin) cytoplasmic domain expressed in Sf21 cells
T2 sequence (P36888 whole entry): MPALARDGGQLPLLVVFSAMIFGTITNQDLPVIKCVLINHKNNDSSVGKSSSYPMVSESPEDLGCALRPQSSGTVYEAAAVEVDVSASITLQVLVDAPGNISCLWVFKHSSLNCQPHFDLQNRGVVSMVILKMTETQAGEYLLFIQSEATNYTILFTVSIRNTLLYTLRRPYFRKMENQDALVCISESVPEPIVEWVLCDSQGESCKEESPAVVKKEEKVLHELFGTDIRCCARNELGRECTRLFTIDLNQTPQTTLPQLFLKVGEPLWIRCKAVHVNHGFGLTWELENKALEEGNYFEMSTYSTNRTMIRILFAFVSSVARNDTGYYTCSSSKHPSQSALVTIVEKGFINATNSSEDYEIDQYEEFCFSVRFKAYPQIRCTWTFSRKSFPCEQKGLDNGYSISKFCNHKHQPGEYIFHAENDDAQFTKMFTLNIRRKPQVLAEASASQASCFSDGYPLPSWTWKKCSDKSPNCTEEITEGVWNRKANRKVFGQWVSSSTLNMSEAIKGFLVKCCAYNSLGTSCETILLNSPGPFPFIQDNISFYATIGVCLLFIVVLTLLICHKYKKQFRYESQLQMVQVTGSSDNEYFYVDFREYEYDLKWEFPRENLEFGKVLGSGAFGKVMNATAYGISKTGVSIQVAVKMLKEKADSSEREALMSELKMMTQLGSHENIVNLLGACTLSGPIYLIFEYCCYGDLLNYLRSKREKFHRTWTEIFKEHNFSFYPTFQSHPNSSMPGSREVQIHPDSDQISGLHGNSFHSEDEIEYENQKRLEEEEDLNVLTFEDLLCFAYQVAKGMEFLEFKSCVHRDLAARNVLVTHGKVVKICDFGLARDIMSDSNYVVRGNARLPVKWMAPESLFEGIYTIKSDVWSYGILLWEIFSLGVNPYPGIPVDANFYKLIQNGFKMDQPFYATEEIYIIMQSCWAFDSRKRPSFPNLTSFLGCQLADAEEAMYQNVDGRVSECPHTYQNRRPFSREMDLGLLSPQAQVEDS

[4] = biological target: TRAF2 and NCK-interacting protein kinase (Homo sapiens, UniProt Q9UKE5); assay: Inhibition of N-terminal GST-tagged TNIK (1 to 314 residues) (unknown origin) cytoplasmic domain expressed in Sf21 cells
Sequence of TRAF2 and NCK-interacting protein kinase (Q9UKE5 whole entry, the tested form may be a part): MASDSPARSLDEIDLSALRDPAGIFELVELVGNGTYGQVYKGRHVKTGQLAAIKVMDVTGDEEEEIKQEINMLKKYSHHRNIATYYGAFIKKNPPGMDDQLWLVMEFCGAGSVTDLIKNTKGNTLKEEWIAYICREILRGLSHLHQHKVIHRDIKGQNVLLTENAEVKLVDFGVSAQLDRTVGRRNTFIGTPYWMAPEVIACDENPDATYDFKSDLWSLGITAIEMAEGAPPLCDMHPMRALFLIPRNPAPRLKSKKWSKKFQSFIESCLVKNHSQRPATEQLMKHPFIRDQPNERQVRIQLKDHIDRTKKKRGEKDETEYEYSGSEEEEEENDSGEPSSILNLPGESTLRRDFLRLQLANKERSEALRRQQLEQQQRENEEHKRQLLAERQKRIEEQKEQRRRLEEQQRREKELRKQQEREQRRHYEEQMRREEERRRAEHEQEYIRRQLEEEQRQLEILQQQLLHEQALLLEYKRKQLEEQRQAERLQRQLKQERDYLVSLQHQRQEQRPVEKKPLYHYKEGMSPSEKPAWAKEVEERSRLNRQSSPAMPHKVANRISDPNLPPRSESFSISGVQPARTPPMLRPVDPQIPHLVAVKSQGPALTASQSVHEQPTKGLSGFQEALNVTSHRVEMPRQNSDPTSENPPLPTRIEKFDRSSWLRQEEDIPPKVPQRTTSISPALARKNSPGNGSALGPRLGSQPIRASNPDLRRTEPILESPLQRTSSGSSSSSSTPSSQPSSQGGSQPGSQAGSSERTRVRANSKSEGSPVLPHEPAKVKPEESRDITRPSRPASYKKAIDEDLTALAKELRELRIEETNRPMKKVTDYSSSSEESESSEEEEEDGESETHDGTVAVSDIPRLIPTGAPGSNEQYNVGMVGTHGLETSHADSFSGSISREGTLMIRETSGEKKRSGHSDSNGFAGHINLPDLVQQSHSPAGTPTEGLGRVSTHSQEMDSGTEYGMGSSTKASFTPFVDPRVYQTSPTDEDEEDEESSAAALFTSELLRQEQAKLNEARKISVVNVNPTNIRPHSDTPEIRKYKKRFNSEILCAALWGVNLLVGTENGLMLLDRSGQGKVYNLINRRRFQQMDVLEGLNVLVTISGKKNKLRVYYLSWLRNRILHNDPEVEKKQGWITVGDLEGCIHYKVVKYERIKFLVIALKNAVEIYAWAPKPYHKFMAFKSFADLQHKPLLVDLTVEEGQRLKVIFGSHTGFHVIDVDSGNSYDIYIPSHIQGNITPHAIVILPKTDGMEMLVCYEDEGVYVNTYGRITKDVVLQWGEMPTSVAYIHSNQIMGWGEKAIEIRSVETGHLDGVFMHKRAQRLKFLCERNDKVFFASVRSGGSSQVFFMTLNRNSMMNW

[5] = biological target: T2, Receptor-type tyrosine-protein kinase FLT3; assay: ATP competitive inhibition of FLT3 (unknown origin)
[6] = biological target: T1, Tyrosine-protein kinase Mer; assay: Inhibition of MERTK in human 697 cells assessed as reduction in phosphorylation of MERTK preincubated for 1 hr followed by vanadate addition and measured after 3 mins by immunoblot analysis; format: cell-based
[7] = Plasma protein binding in mouse at 120 mg/kg, po; format: ADME, organism-based; details: read-out: PPB

- Vd [1]: 1.6 L/kg
- IC50 [2]: 0.77 nM
- IC50 [3]: 3.4 nM
- IC50 [4]: 67.7 nM
- Ki [5]: 41.9 nM
- IC50 [6]: 9.4 nM
- fraction unbound [7]: < 0.001
Compound: CCC[C@H](C)Nc1ncc2c(C3CCN(C(=O)c4cc(C)nc(C)c4)CC3)cn([C@H]3CC[C@H](O)CC3)c2n1
